Test results from EP3750892A1, “NOVEL 5-CYCLOPROPYL-FURO[3,4-C]PYRIDINE-3,4(1H,5H)-DIONE 1,1' SUBSTITUTED DERIVATIVES AND THEIR USES” (Yerevan State University, priority 2019, dated 2020).

Tests used:
Assay type in all cases: cell-based
[1] = system: cellular response to IFN-α; assay: ISRE-Luc reporter assay: amplification of cellular response to IFN-α; details: for amplification of cellular response to IFN-α: HEK-293 ISRE-Luc (STING 37 cell line); for amplification of cellular response to IFN-α / pEC50 / EC50: IFN-α 150 IU/mL; for pEC50 / EC50: ISRE-Luc reporter cells, dose-response 0.8 to 150 µM, luciferase after 24 h, pEC50<3.8 = inactive
Method: Cells were cultured at 37°C and 5% CO2 in Dulbecco's modified Eagle's Medium (DMEM; Sigma-Aldrich) containing 10% fetal calf serum (FCS), penicillin and streptomycin. Experiments were performed on HEK-293 cells stably transfected with the ISRE-Luciferase reporter gene (ISRE-Luc), with or without NanoLuc as an additional reporter gene (Lucas-Hourani et al., 2013; Hayek et al., 2019).
Reporter cells were incubated with increasing concentrations of candidates DHODH inhibitors diluted in DMSO in the presence or not of recombinant IFN-α (150 IU/mL). Recombinant IFN-α was from Sigma-Aldrich or PBL Assay Science. Luciferase activity was quantified 24 h later.
To confirm that modulation of IFN-α is related to DHDOH inhibition by compounds of the invention, the same experiments were performed by adding either uridine (pyrimidine derivated nucleoside), dihydroorotate (DHO, the substrate od DHODH in pyrimidine de novo biosynthesis pathway) or orotate (the product of ubiquinone-mediated oxidation of DHO catalysed by DHODH) together with compound of the invention. uridine, orotate, and DHO are all from Sigma Aldrich.
Firefly luciferase expression in culture wells was measured using the Bright-Glo (Promega) or Britelite plus reagents (PerkinElmer), according to the manufacturer's recommendations. For each concentration, three independent experiments were performed.
Compounds were tested for their ability to boost cellular response to IFN-α using ISRE-Luc reporter cells.

[2] = system: cellular response to IFN-γ; assay: ISRE-Luc reporter assay: amplification of cellular response to type II IFN; details: HEK-293 ISRE-Luc, compound 80 µM, recombinant IFN-γ
Method: Reporter system, cell culture and luciferase assay are performed as exposed above. HEK-293 cells with the ISRE-Luc reporter gene were treated with DMSO or compounds of the invention in the absence or presence of recombinant IFN-γ (Figure 4A; Roussel Uclaf or Milteny Biotech, 150 IU/mL).
(§1) The same experiment was performed but using different dilutions ranging from 1/8 to 1/64 of conditioned supernatants from activated PBMCs, instead of recombinant IFN-γ. Human peripheral blood mononuclear cells (PBMC) from one healthy donor were isolated by density centrifugation with Lymphoprep medium (StemCell Technologies) from leucocytes concentrates obtained when plateletpheresis was performed (Etablissement Français du Sang; Paris; France). To activate PBMCs, cells were treated for 24 h with the TLR7/8 ligand R848 at 5 µg/mL (Sigma Aldrich) and supernatants were harvested. R848 is known to induce expression of several cytokines, within which IFN-γ which is found at high levels in PBMC supernatants in comparison with type I IFNs (Table 4). Table 4. Cytokine expression levels in culture supernatants of human PBMC activated with R848.

[3] = system: de novo pyrimidine biosynthesis; assay: Purine (G/A) and pyrimidine (C/U) quantification by HPLC-coupled spectrophotometry in HEK-293 cells; details: 24 h, 5, 10 or 20 µg/mL
Method: Cells were cultured at 37°C and 5% CO2 in Dulbecco's modified Eagle's Medium (DMEM; Sigma-Aldrich) containing 10% fetal calf serum (FCS), penicillin and streptomycin. Nucleoside/nucleotide quantification in HEK-293 cells was performed as previously described in by Lucas-Hourani et al. (2017). Briefly, cells were plated in 6-well plates at 1x10^6 cells per well and after 24 h, several concentrations of compounds of the invention (diluted in DMSO) or DMSO alone was added.
One day later, cells were washed with PBS and cellular pellets were deproteinized by adding an equal volume of 6% perchloric acid. After 10 min of incubation on ice and clearing of the extracts by centrifugation (13,000 rpm for 10 min at 4°C), supernatants were supplemented with bidistilled water (V/V) and neutralized by the addition of 2 M Na2CO3. Extracts were analyzed by HPLC onto a C18 Supelco 5-µm (250 by 4.6 mm) column (Sigma) at 45°C using a mobile phase delivered at a flow rate of 1 mL/min. Buffer A contained 10 mM tetrabutylammonium hydroxide, 10 mM KH2PO4, and 0.25% MeOH and was adjusted to pH 6.9 with 1 M HCl. Buffer B contained 5.6 mM tetrabutylammonium hydroxide, 50 mM KH2PO4, and 30% MeOH and was neutralized to pH 7.0 with 1 M NaOH. […] Products were monitored spectrophotometrically at 254 nm with a diode array detector (PDA) and quantified by integration of the peak absorbance area. […]

[4] = system: HEK-293 cells; assay: Cell viability / proliferation assay (CellTiter-Glo); details: 24, 48 and 72 h of culture
Method: Cells were treated with DMSO or compounds of the invention at different concentrations, and the number of viable cells was determined using the CellTiter-Glo reagent after 24, 48 and 72 h of culture. Cellular viability was determined by quantification of ATP in culture wells using the CellTiter-Glo assay (Promega).
Two independent experiments were performed. Results were analyzed using one-way analysis of variance (ANOVA) with Bonferroni's post hoc test.

[5] = system: human PBMC; assay: Cytokine expression levels in culture supernatants of PBMC activated with R848; details: PBMC + R848 5 µg/mL, 24 h, supernatant
Method: as §1

Compound: 5'-cyclopropyl-3'H-spiro[cyclohexane-1,1'-furo[3,4-c]pyridine]-3',4(5'H)-dione [Compound 2]
- amplification of cellular response to IFN-α [1]: amplified
- pEC50 [1]: 4.4
- reversal of amplification of response to IFN-α by uridine, orotate or DHO ([1]; compound 80 µM, uridine 125 µM, DHO 3 mM, orotate 3 mM): reversed by orotate but not DHO
- Amplification of response to IFN type II [2]: Amplification of response to IFN type II
- Pyrimidine (U and C) levels [3]: drop of pyrimidine cellular concentration
- proliferation of HEK-293 cells (number of viable cells) [4]: prevent cell proliferation

Compound: 5'-cyclopropyl-3'H-spiro[cyclopentane-1,1'-furo[3,4-c]pyridine]-3',4(5'H)-dione [Compound 1]
- pEC50 [1]: 4.3

Compound: CC1(c2ccccc2)OC(=O)c2c1ccn(C1CC1)c2=O (stereo not shown) [Compound 3, 5-cyclopropyl-1-methyl-1-phenylfuro[3,4-c]pyridine-3,4(1H,5H)-dione]
- amplification of cellular response to IFN-α [1]: amplified
- EC50 [1]: 25.1 µM

Compound: CC1(CCc2ccccc2)OC(=O)c2c1ccn(C1CC1)c2=O (stereo not shown) [Compound 4, 5-cyclopropyl-1-methyl-1-phenethylfuro[3,4-c]pyridine-3,4(1H,5H)-dione]
- EC50 [1]: 6.31 µM

Compound: CCOCc1nc2c(N)nc3ccccc3c2n1CC(C)(C)O [Compound R848]
- GM-CSF [5]: 0.043 ng/mL
- IFN-α2 [5]: 0.097 ng/mL
- IFN-β [5]: 0.015 ng/mL
- IFN-γ [5]: 4.2 ng/mL
- IFN-λ1 [5]: 0.016 ng/mL
- IL-1β [5]: 12 ng/mL
- IL-6 [5]: 65 ng/mL
- IL-8 [5]: 214 ng/mL
- IL-10 [5]: 0.283 ng/mL
- IL-12p70 [5]: 0.009 ng/mL
- IP10 [5]: 0.028 ng/mL
- TNF-α [5]: 11 ng/mL
